Reference: patent publication US8017611B2, “Pyridine and pyrazine derivatives -083” (AstraZeneca AB, priority 2007, dated 2011)
pIC50: −log10 of the molar value. Read-outs that look alike come from different tables or passages of the source.

Experiments:
[1] = target: T1, recombinant Axl tyrosine kinase (Homo sapiens, UniProt P30530); experiment: In vitro Axl kinase assay (AlphaScreen), Test (a); format: biochemical
T1 construct: encompassing amino acids 473 to 894 of Axl; GST (N); made in house; host or cells: SF126 insect cells
T1 sequence (P30530 473-894): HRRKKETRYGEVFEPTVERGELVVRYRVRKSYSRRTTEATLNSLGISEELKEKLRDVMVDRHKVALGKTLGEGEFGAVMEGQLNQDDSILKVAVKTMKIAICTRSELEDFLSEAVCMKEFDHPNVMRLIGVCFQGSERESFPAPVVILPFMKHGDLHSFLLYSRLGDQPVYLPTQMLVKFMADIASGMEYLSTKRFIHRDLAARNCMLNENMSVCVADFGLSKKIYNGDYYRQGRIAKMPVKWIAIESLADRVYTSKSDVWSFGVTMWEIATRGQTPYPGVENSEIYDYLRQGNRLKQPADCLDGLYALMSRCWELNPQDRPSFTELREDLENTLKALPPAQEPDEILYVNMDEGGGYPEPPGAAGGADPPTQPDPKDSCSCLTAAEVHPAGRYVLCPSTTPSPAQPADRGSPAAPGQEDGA

[2] = target: T2, cMet expressed on MKN45 cells (Homo sapiens, UniProt P08581); experiment: Cellular c-Met inhibition assay, Test (d); format: cell-based
T2 construct: endogenous in cells; host or cells: MKN45
T2 sequence (P08581 25-1390): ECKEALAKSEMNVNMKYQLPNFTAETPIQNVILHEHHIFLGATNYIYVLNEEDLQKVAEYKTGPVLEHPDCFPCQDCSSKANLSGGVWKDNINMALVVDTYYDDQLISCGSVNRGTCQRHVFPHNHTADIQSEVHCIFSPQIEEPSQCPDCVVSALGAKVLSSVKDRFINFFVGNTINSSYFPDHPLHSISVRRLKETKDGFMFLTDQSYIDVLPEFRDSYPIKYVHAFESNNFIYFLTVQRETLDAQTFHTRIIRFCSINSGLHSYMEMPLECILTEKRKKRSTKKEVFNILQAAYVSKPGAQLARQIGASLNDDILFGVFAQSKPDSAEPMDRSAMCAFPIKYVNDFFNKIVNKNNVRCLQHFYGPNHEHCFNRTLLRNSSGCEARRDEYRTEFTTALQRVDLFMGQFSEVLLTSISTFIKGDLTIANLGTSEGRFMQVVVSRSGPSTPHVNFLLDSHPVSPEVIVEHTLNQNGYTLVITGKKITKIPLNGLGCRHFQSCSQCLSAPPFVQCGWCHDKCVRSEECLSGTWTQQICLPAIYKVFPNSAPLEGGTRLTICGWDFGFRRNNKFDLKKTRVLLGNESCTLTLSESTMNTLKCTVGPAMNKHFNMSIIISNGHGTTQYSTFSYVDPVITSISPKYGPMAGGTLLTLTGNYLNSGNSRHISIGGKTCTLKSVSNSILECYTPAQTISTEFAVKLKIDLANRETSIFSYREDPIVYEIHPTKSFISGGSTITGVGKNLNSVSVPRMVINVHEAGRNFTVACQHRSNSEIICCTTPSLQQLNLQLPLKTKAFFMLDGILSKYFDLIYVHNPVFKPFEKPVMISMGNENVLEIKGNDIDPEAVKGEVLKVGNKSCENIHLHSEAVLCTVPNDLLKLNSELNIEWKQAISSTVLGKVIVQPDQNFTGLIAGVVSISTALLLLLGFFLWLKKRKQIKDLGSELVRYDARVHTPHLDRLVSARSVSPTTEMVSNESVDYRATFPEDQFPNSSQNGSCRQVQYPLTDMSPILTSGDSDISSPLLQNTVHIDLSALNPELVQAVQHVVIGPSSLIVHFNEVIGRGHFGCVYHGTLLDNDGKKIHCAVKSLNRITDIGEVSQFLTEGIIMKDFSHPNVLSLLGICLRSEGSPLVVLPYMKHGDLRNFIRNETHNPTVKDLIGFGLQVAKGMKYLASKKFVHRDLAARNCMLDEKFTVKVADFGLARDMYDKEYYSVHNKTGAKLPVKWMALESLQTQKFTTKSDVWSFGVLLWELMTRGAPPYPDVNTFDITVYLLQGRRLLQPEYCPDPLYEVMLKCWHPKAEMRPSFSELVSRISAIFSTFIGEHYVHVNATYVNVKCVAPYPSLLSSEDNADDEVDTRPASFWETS
Description: These and other assays can be used to indicate the ability of a test compound to inhibit c-Met mediated cellular signalling in mammalian cell lines, for example the human tumour cell line MKN45. This is achieved by measuring the amount of phosphorylated c-Met within a cell following compound treatment.
MKN45 cells were routinely passaged in DMEM (Gibco BRL, product number 41966-029) plus 10% foetal calf serum (FCS), 1% L-glutamine (Gibco BRL, product number 25030024), to a confluence not greater than 85%. To undertake the assay, MKN45 cells were seeded at 2×10^4 cells/well in DMEM plus 0.5% foetal calf serum, 1% L-glutamine in 96 well plates (Costar, product number 3904) and incubated at 37° C. (+5% CO2) in a humidified incubator. Once the cells had fully adhered (typically following overnight incubation) plates were dosed with 25 μl compound (diluted from 10 mM stock in DMSO using serum free DMEM) and the plates were returned to a humidified 37° C. (+5% CO2) incubator for one hour. Following incubation the cells were fixed by adding formaldehyde (4% final concentration) and incubating at room temperature for 20 minutes. […] The plates were read using an Arrayscan II (Cellomics). […]

[3] = target: T3, Axl expressed on NCI H1299 lung large cell carcinoma cells (Homo sapiens, UniProt P30530); experiment: Cellular phospho-Axl ELISA assay, Test (b); conditions: Test (b)
T3 sequence (P30530 26-894): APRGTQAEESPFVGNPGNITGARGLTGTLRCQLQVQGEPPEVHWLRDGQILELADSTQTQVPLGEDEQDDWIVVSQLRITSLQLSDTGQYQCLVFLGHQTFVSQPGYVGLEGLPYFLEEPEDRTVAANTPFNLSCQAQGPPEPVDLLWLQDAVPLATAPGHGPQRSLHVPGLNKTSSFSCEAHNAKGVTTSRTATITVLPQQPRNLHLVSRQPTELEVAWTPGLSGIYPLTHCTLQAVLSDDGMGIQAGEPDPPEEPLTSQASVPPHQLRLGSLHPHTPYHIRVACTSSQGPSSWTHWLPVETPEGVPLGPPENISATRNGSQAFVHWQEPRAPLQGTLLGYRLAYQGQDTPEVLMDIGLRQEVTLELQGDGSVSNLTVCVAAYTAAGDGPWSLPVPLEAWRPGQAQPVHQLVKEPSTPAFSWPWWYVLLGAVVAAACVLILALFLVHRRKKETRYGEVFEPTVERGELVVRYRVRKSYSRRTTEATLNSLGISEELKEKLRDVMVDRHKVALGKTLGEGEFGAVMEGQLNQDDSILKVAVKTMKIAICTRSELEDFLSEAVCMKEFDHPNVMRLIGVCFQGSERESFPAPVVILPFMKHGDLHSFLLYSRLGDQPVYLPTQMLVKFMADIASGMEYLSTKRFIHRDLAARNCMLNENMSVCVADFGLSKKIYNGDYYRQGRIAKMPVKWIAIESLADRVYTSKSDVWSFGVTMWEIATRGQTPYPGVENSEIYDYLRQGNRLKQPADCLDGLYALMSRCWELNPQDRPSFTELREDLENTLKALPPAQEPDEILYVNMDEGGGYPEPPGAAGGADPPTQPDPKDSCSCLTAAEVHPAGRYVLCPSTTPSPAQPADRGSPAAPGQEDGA
Description: This assay uses a conventional ELISA method to determine the ability of test compounds to inhibit phosphorylation of tyrosine residues in Axl.
100 μl Aliquots were seeded into each of the wells of a clear 96 well tissue culture plate and the plates were incubated overnight at 37° C. with 5% CO2 to allow the cells to adhere to the wells.
Aliquots of each compound concentration were added to the cells in each well using the Echo 550 (Labcyte Inc., Sunnyvale, Calif., US). Control cells received DMSO only. The cells were incubated for 2 hours at 37° C. with 5% CO2.
The resultant tissue culture plates were incubated on ice for 30 minutes to ensure full lysis.
The wells were washed 3 times with 250 μl per well of PBS containing 0.05% v/v Tween (PBS/T). The wells were treated with 3% w/v BSA in PBS at ambient temperature for 2 hours and subsequently washed 3 times with 250 μl per well of PBS/T.
50 μl Aliquots of the NCI H1299 cell lysates were added to the ELISA plates.
100 μl Aliquots of substrate solution were added to each of the wells and fluorescence was read on a Tecan Ultra plate reader (Tecan UK Ltd., Reading, Berkshire, UK).

**Q.** With `CN1CCC(n2cc(-c3cnc(N)c(-c4nc5ccc(F)cc5o4)c3)cn2)CC1` [Example 7.2] as the compound, how does the pIC50 ([1]; Test (a), read-out: IC50 versus Axl tyrosine kinase) read?
**A.** The pIC50 was about 7.62.

**Q.** What about the “% Axl tyrosine kinase inhibition at 1 μM concentration” value ([1]; test compound at 1 μM, first value quoted) of the same compound?
**A.** The value was 96.6%.

**Q.** And the pIC50 ([2]; MKN45 cells, read-out: IC50 versus cellular phospho-c-Met (pYpYpY1230/4/5))?
**A.** Its pIC50 is about 6.23.

**Q.** What about the pIC50 ([2]; later recalculated, read-out: IC50 versus cellular phospho-c-Met (pYpYpY1230/4/5), mean recalculated from a larger number of replicates) of the same compound?
**A.** The pIC50 was 6.02.

**Q.** And the pIC50 ([3]; read-out: IC50 versus cellular phospho-Axl, mean recalculated from a larger number of replicates, later recalculated)?
**A.** The pIC50 was 6.95.

**Q.** What about the pIC50 ([3]; read-out: IC50 versus cellular phospho-Axl, NCI H1299 cells stimulated with GAS6) of the same compound?
**A.** The pIC50 was about 7.41.
